Reference: article PMC8037310, “Thrombin-Derived Peptides Potentiate the Activity of Gram-Positive-Specific Antibiotics against Gram-Negative Bacteria” (Molecules, 2021)
Peptide text beside a SMILES is read from it.

Columns and labels:
[1] = test system: E. coli BW25113; experiment: microbe, parasite or virus in culture; type: cell-based, Escherichia coli
[2] = test system: E. coli BW25113; type: cell-based, Escherichia coli
[3] = test system: E. coli EQASmcr-3 (EQAS 2017 2013-SQ352); type: cell-based, Escherichia coli; details: E. coli EQASmcr-3
[4] = test system: E. coli mcr-1; type: cell-based, Escherichia coli; details: E. coli mcr-1
Summary of the method: (§1)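 Checkerboard of peptide serial dilutions against rifampicin concentrations in triplicate, in LB with 1.0 × 10^6 CFU/mL final inoculum after mixing the 2.0 × 10^6 CFU/mL stock 1:1, 20 h at 37 °C shaking. OD600 read; FICi = MSCa/MICa + MSCb/MICb, ≤0.5 taken as synergy.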

[5] = test system: E. coli W3110; type: cell-based, Escherichia coli
[6] = test system: E. coli EQASmcr-1 (EQAS 2016 412016126); type: cell-based, Escherichia coli
[7] = test system: E. coli EQASmcr-2 (EQAS 2016 KP37); type: cell-based, Escherichia coli
[8] = test system: E. coli ATCC25922; type: cell-based, Escherichia coli
Summary of the method: as §1

[9] = test system: E. coli BW25113; experiment: Checkerboard assay with erythromycin; type: cell-based, Escherichia coli
[10] = test system: P. aeruginosa ATCC27853; experiment: Checkerboard assay with rifampicin; type: cell-based, Pseudomonas aeruginosa; details: P. aeruginosa ATCC27853
Experimental: All peptides were screened for antimicrobial activity against E. coli BW25113, E. coli ATCC25922, and E. coli W3110. A select group of the peptides was further tested against E. coli mcr-1, E. coli EQASmcr-1 (EQAS 2016 412016126), E. coli EQASmcr-2 (EQAS 2016 KP37), E. coli EQASmcr-3 (EQAS 2017 2013-SQ352), K. pneumoniae ATCC13883, P. aeruginosa ATCC27853, and A. baumannii ATCC17978. The antimicrobial assay was performed according to CLSI guidelines. Bacteria were plated out directly from their glycerol stocks on blood agar plates, incubated overnight at 37 °C, and then kept in the fridge. The blood agar plates were only used for 2 weeks and then replaced.
One colony from a blood agar plates was inoculated in Lysogeny Broth (LB) at 37 °C until a 0.5 optical density at 600 nm (OD600) was reached (compared to the sterility control of LB). The bacterial suspension was diluted in fresh LB to 2.0 × 10^6 CFU/mL. The serial dilutions were prepared in polypropylene microtiter plates: a stock of the test compounds was prepared with a 2x final concentration in LB. Moreover, 100 µL of the stock was added to the wells of the top row of which 50 µL was used for the serial dilution. The bottom row of each plate was used as the positive (50 µL of LB) and negative controls (100 µL of LB) (6 wells each). Furthermore, 50 µL of the 2.0 × 10^6 CFU/mL bacterial stock was added to each well except for the negative controls, adding up to a total volume of 100 µL per well. The plates were sealed with a breathable seal and incubated for 20 h at 37 °C and 600 rpm.
Two 96-well plates were required per compound. A serial dilution of the compound was performed on two plates from row A–G using with LB as medium. Row H was filled with 25 µL medium. On a separate plate a negative control (8 wells, 100 μL medium) was prepared. For all concentrations of antibiotic a specific stock was prepared. 25 µL medium was added to the 0 µg/mL antibiotic columns (plate I, column 1–3). Of each antibiotic stock 25 µL was added to three columns to obtain triplicates for every condition. Both plates contained 50 µL in each well to which 50 µL bacterial stock was added (see the protocol of the MIC assays) and the plates were sealed. After incubation for 20 h at 37 °C while shaking, the breathable seals were removed and the density of the bacterial suspensions measured at 600 nm (OD600) using a Tecan Spark plate reader. The OD600 values were transformed to a 2D gradient with the negative control as minimum and the positive control (wells G1, G2, and G3) as maximum in excel. The FICi was calculated using Equation (1) with a FICi ≤ 0.5 indicating synergy. FICi = (MSCa/MICa) + (MSCb/MICb),(1)
Calculation of the FICi: MSCa = concentration of the […] in combination with the antibiotic that results in the lowest FICi. MICa = MIC of the antibiotic without synergist (row G). MSCb = concentration of the synergist in combination with the antibiotic that results in the lowest FICi. MICb = MIC of the synergist itself (Column 1–3, plate I).

[11] = peptide concentration in the combination with rifampicin giving the lowest FICi
[12] = rifampicin concentration in the combination giving the lowest FICi

CC[C@H](C)[C@H](NC(=O)[C@H](Cc1c[nH]c2ccccc12)NC(=O)[C@H](CCCCN)NC(=O)[C@H](CCCCN)NC(=O)[C@H](CC(C)C)NC(=O)[C@H](CCCNC(=N)N)NC(=O)[C@H](Cc1ccccc1)NC(=O)[C@@H](N)C(C)C)C(=O)N[C@@H](CCC(N)=O)C(=O)N[C@@H](CCCCN)C(=O)N[C@H](C(=O)N[C@@H](C)C(N)=O)C(C)C [peptide 19] (H-VFRLKKWIQKVA-NH2)
MICpeptide ([1]; synergist alone, E. coli BW25113, from checkerboard with vancomycin): 200 µg/mL
MSCpeptide ([1]; synergist concentration in the combination with vancomycin giving the lowest FICi, E. coli BW25113): 12.5 µg/mL
MSCvanco ([1]; vancomycin concentration in the combination giving the lowest FICi, E. coli BW25113): 6.25 µg/mL
FICi ([2]; BW25113, 20 h): 0.0781
MICpep ([2]; synergist alone, E. coli BW25113, from checkerboard with rifampicin): 100 µg/mL
MSCpep ([2]; synergist concentration in the combination with rifampicin giving the lowest FICi, E. coli BW25113): 6.25 µg/mL
MICpeptide ([3]; peptide alone): > 200 µg/mL
MSCpeptide [3, 11]: 6.25 µg/mL
MSCrif [3, 12]: 0.125 µg/mL
MICpeptide ([4]; peptide alone): > 200 µg/mL
MSCpeptide [4, 11]: 25 µg/mL
MSCrif [4, 12]: 0.75 µg/mL
FICi ([5]; W3110, 20 h): 0.0782
MICpeptide ([5]; peptide alone, E. coli W3110): 100 µg/mL
MSCpeptide ([5]; peptide concentration in the combination with rifampicin giving the lowest FICi, E. coli W3110): 3.125 µg/mL
MSCrif ([5]; rifampicin concentration in the combination giving the lowest FICi, E. coli W3110): 0.5 µg/mL
FICi ([6]; EQASmcr-1 (EQAS 2016 412016126, 20 h)): 0.0938
MICpeptide ([6]; peptide alone, E. coli EQASmcr-1): > 200 µg/mL
MSCpeptide ([6]; peptide concentration in the combination with rifampicin giving the lowest FICi, E. coli EQASmcr-1): 12.5 µg/mL
MSCrif ([6]; rifampicin concentration in the combination giving the lowest FICi, E. coli EQASmcr-1): 0.5 µg/mL
MICpeptide ([7]; peptide alone, E. coli EQASmcr-2): 200 µg/mL
MSCpeptide ([7]; peptide concentration in the combination with rifampicin giving the lowest FICi, E. coli EQASmcr-2): 12.5 µg/mL
MSCrif ([7]; rifampicin concentration in the combination giving the lowest FICi, E. coli EQASmcr-2): 0.5 µg/mL
FICi ([7]; with rifampicin vs E. coli EQASmcr-2): 0.1250
FICi ([8]; ATCC25922, 20 h): 0.0313
MICpeptide ([8]; peptide alone, E. coli ATCC25922): > 200 µg/mL
MSCpeptide ([8]; peptide concentration in the combination with rifampicin giving the lowest FICi, E. coli ATCC25922): 6.25 µg/mL
MSCrif ([8]; rifampicin concentration in the combination giving the lowest FICi, E. coli ATCC25922): 0.063 µg/mL
MSCery ([9]; erythromycin concentration in the combination with the synergist giving the lowest FICi, E. coli BW25113): 12.5 µg/mL
MIC of the peptide (MICpep) ([9]; synergist alone, E. coli BW25113, LB, 20 h 37 °C, from checkerboard with erythromycin): 100 µg/mL
MSCpeptide, minimum synergistic concentration ([9]; synergist concentration in the combination with erythromycin giving the lowest FICi, E. coli BW25113, LB, 20 h 37 °C, OD600): 3.125 µg/mL
MICpeptide ([10]; peptide alone): 100 µg/mL
MSCpeptide [10, 11]: 25 µg/mL
MSCrif [10, 12]: 0.25 µg/mL
